According to patent US20260176250A1, “TRIAZINONE DERIVATIVES AS NLRP3 INHIBITORS” (Hoffmann-La Roche Inc., priority 2022, published 2026):
pIC50: −log10 of the molar value.

Tests used:
[1] = Metabolic stability in human hepatocytes; format: in vitro ADME
Procedure: Biological materials. Cryopreserved hepatocytes [mouse, rat, rabbit, monkey and human (male and female; mixed)] are obtained. Viability of hepatocytes after reconstitution is at least 80% throughout the study. Ready-to-use rat/human HepatoPac® cultures [long-term hepatocyte co-cultures; pooled (n=5 for male and n=5 for female for human)] with stromal mouse fibroblasts (negative control; pooled) with the plates for incubations, application medium and maintenance medium are acquired.
Metabolism by suspended hepatocytes. Primary pooled cryopreserved hepatocytes are reconstituted in pre-warmed William's E media containing 10% FCS, 0.05 mg/mL streptomycin and 50 U/mL penicillin and 0.4 mM L-glutamine; and 0.01 mg/mL gentamicin, 0.048 mg/mL hydrocortisone and 0.004 mg/mL insulin, to a final suspension density of 1×10^6 cells/mL. The incubation was performed fully automatically with Liquid Handling System (Tecan) equipped with a CO2 incubator with an orbital shaker. After the addition of a test compound at e.g. 1 μM to the wells (1×10^5 cells/well), the 96-well hepatocyte suspension culture plates are incubated in a 5% CO2 at 37° C. Samples are quenched by addition of acetonitrile (including an internal standard) to the incubation well at the designated time points up to 2 h.
Metabolism by HepatoPac®. […]
Samples are then centrifuged appropriately and the supernatant analyzed by LC-MS/MS. […]

NLRP3 [2] = biological target: T1, NLRP3 (Homo sapiens, UniProt Q96P20); assay: Human whole blood IL-1β release assay; format: cell-based; set-up: Human whole blood in Li-heparin tubes was obtained from healthy donors; from tissue; host or cells: human whole blood from healthy donors; details: LPS 1 μg/ml, nigericin 10 μM, IL-1β AlphaLisa, read-out: Human whole blood IL-1ß Assay IC50
T1 sequence (Q96P20 whole entry): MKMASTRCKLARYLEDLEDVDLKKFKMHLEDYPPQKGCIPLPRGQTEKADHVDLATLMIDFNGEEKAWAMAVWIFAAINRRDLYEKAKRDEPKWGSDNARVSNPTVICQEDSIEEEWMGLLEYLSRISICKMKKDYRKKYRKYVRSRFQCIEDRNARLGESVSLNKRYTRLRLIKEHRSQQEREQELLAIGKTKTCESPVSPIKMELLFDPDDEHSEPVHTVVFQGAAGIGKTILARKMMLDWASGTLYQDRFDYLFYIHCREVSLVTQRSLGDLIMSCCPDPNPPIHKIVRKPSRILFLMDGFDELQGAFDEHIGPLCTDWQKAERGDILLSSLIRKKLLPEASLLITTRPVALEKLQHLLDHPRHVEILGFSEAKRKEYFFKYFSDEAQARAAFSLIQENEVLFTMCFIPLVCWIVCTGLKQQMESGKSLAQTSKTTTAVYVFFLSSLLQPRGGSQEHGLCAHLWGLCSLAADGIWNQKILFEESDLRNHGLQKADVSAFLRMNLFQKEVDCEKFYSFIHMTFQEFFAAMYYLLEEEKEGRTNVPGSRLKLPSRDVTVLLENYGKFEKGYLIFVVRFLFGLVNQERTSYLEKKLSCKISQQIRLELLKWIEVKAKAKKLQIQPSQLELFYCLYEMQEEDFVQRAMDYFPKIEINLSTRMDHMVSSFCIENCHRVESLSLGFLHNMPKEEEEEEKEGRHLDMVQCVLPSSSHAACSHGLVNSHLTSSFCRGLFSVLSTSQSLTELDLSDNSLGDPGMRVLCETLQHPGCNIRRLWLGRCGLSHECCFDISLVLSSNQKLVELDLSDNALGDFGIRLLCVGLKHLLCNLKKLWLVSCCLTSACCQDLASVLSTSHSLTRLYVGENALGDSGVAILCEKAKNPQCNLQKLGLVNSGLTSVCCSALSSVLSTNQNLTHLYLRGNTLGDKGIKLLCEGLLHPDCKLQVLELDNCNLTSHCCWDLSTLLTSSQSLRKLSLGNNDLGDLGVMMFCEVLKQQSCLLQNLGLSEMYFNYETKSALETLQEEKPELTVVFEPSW
Procedure: For systemic delivery, the ability to inhibit NLRP3 when the compounds are present within the bloodstream is of great importance. For this reason, the NLRP3 inhibitory activity of a number of compounds in human whole blood was investigated in accordance with the following protocol.
Human whole blood in Li-heparin tubes was obtained from healthy donors from a volunteer donor panel. • 1. Plate out 80 μl of whole blood containing 1 μg/ml of LPS in 96-well, clear bottom cell culture plate (Corning #3585) • 2. Add 10 μl compound (8 points half-log dilution with 10 μM top dose) or vehicle (DMSO 0.1% FAC) to the appropriate wells • 3. Incubate for 3 hours at 37° C., 5% CO2 • 4. Add 10 μl nigericin (Sigma #N7143) (10 μM FAC) to all wells • 5. Incubate for 1 hr at 37° C., 5% CO2 • 6. At the end of the incubation period, spin plates at 300xg for 5 mins to pellet cells and remove 20 μl of supernatant and add to 96-well v-bottom plates for IL-1β analysis (note: these plates containing the supernatants can be stored at −80° C. to be analysed at a later date) • 7. IL-1β was measured according to the manufacturer protocol (Perkin Elmer-AlphaLisa IL-1 Kit AL220F-5000) • 8. IC50 data is fitted to a non-linear regression equation (log inhibitor vs response-variable slope 4-parameters)

NLRP3 [3] = biological target: T1, NLRP3; assay: THP-1 cells pyroptosis assay; format: cell-based; details: LPS 1 μg/ml, nigericin 5 μM, resazurin readout
Procedure: THP-1 cells (ATCC #TIB-202) were grown in RPMI containing L-glutamine (Gibco #11835) supplemented with 1 mM sodium pyruvate (Sigma #S8636) and penicillin (100 units/ml)/streptomycin (0.1 mg/ml) (Sigma #P4333) in 10% Fetal Bovine Serum (FBS) (Sigma #F0804). The cells were routinely passaged and grown to confluency (˜10^6 cells/ml). On the day of the experiment, THP-1 cells were harvested and resuspended into RPMI medium (without FBS). The cells were then counted and viability (>90%) checked by Trypan blue (Sigma #T8154). Appropriate dilutions were made to give a concentration of 625,000 cells/ml. To this diluted cell solution was added LPS (Sigma #L4524) to give a 1 μg/ml Final Assay Concentration (FAC). 40 μl of the final preparation was aliquoted into each well of a 96-well plate. The plate thus prepared was used for compound screening.
The following method step-by-step assay was followed for compound screening. • 1. Seed THP-1 cells (25,000 cells/well) containing 1.0 μg/ml LPS in 40 μl of RPMI medium (without FBS) in 96-well, black walled, clear bottom cell culture plates coated with poly-D-lysine (VWR #734-0317) • 2. Add 5 μl compound (8 points half-log dilution, with 10 μM top dose) or vehicle (DMSO 0.1% FAC) to the appropriate wells • 3. Incubate for 3 hours at 37° C., 5% CO2 • 4. Add 5 μl nigericin (Sigma #N7143) (FAC 5 μM) to all wells • 5. Incubate for 1 hr at 37° C., 5% CO2 • 6. At the end of the incubation period, spin plates at 300xg for 3 mins and remove supernatant • 7. Then add 50 μl of resazurin (Sigma #R7017) (FAC 100 μM resazurin in RPMI medium without FBS) and incubate plates for a further 1-2 hours at 37° C. and 5% CO2 • 8. Plates were read in an Envision reader at Ex 560 nm and Em 590 nm • 9. IC50 data is fitted to a non-linear regression equation (log inhibitor vs response-variable slope 4-parameters)

[4] = biological target: T2, hERG cardiac potassium channel (Homo sapiens, UniProt Q12809); assay: hERG screening assay (automated patch clamp, CHO-hERG cells); format: cell-based; details: CHO crelox hERG cell line (CHO cells that express hERG), whole-cell patch clamp, 35-37° C.
T2 construct: host or cells: CHO crelox hERG cell line (Chinese hamster cells)
T2 sequence (Q12809 whole entry): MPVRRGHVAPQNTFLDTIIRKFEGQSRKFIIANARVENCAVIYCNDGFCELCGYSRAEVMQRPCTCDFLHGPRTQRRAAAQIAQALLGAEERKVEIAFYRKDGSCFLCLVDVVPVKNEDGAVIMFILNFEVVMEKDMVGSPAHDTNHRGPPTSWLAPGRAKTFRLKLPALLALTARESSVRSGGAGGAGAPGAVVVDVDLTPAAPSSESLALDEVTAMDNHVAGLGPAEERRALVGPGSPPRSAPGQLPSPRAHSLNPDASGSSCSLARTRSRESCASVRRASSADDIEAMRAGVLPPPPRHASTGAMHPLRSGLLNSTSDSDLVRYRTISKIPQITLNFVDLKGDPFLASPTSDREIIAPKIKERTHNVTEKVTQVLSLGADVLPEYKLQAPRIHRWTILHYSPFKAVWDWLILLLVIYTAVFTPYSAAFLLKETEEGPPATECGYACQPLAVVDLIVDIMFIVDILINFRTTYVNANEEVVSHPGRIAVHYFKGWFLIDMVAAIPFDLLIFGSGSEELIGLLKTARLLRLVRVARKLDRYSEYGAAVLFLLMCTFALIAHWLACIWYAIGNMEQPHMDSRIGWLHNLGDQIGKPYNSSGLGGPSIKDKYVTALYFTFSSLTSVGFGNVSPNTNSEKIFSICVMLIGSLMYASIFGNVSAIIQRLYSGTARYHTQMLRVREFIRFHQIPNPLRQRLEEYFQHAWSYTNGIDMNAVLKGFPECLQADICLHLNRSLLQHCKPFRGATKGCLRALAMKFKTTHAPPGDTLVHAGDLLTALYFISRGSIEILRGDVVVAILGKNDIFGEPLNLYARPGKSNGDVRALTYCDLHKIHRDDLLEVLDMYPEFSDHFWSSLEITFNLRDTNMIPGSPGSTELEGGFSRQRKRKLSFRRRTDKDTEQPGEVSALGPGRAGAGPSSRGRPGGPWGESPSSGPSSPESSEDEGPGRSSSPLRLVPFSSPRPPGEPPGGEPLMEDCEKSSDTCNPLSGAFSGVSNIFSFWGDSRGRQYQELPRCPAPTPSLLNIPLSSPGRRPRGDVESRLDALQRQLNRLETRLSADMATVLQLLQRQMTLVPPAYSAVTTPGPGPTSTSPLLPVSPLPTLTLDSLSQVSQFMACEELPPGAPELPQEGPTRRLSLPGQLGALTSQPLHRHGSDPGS
Text: In the drug development process of small molecules, one of the most frequent adverse side effects, leading to the failure of drugs, is the cardiac arrhythmias. Such failure is often related to the capacity of the drug to inhibit the human ether-à-go-go-related gene (hERG) cardiac potassium channel. Having no or low inhibition of the hERG cardiac potassium channel is therefore considered as beneficial.
The CHO crelox hERG cell line (ATCC reference Nr. PTA-6812, female Chinese hamster cells) was generated and validated at Roche. Ready-to-use frozen instant CHO-hERG cells were cryopreserved at Evotec (Germany) and used directly in the experiments.
The extracellular solution contains (in mM): NaCl 150; KCl 4; CaCl2) 1; MgCl2 1; HEPES 10; pH 7.2-7.4 with NaOH, osmolarity 290-330 mOsm. […]
The effects of a compound on hERG K+-currents parameters will be evaluated at 2 concentrations in at least 4 cells.
The hERG test is performed using automated patch clamp system SynchroPatch® 384 (Nanion Technologies GmbH, Germany). K+ currents are measured with the patch-voltage-clamp technique in the whole-cell configuration at 35-37° C. […]
The amplitudes of IKhERG were recorded in each concentration of drug and they were compared to the vehicle control values (taken as 100%) to define fractional blocks. […]

Row | Clint at 1 μM [1] [μl/min/10E6 cells] | pIC50 (NLRP3 [2]) | pIC50 (NLRP3 [3]) | SMILES | IC20 [4] [nM]
1 | <0.2 | 8.10 | 8.82 | CCN1CCC[C@@H](Nc2nnc(-c3ccc4c(c3O)CCC4)n(C)c2=O)C1 [Example 1, 6-[[(3R)-1-Ethyl-3-piperidyl]amino]-3-(4-hydroxyindan-5-yl)-4-methyl-1,2,4-triazin-5-one] | > 10000
2 | – | 8.00 | 8.24 | CCN1CCC[C@@H](Nc2nnc(-c3ccc4c(c3O)CC4)n(C)c2=O)C1 [Example 2] | –
3 | – | 7.59 | 7.89 | CCN1CCC[C@@H](N(C)c2nnc(-c3ccc4c(c3O)CCC4)n(C)c2=O)C1 [Example 3, 6-[[(3R)-1-Ethyl-3-piperidyl]-methyl-amino]-3-(4-hydroxyindan-5-yl)-4-methyl-1,2,4-triazin-5-one] | –
